pIC50: −log10 of the molar value.
Assays:
[1] = system: OVCAR-4; assay: NCI 60 cell line panel (SRB), OVCAR-4; type: cell-based; conditions: Homo sapiens; OVCAR-4, Ovarian Cancer; single dose of 10 μM; read-out: Cell Growth Percent
[2] = system: A498; assay: NCI 60 cell line panel (SRB), A498; type: cell-based; conditions: Homo sapiens; A498, Renal Cancer; single dose of 10 μM; read-out: Cell Growth Percent
[3] = system: ACHN; assay: NCI 60 cell line panel (SRB), ACHN; type: cell-based; conditions: Homo sapiens, Renal Cancer, single dose of 10 μM, read-out: Cell Growth Percent
[4] = system: SNB-75; assay: NCI 60 cell line panel (SRB), SNB-75; type: cell-based; conditions: Homo sapiens; SNB-75, CNS Cancer; single dose of 10 μM; read-out: Cell Growth Percent
[5] = system: MDA-MB-468; assay: NCI 60 cell line panel (SRB), MDA-MB-468; type: cell-based; conditions: Homo sapiens; MDA-MB-468, Breast Cancer; single dose of 10 μM; read-out: Cell Growth Percent
[6] = system: SR; assay: NCI 60 cell line panel (SRB), SR; type: cell-based; conditions: Homo sapiens, Leukemia, single dose of 10 μM, read-out: Cell Growth Percent
[7] = system: LOX IMVI; assay: NCI 60 cell line panel (SRB), LOX IMVI; type: cell-based; conditions: Homo sapiens, Melanoma, single dose of 10 μM, read-out: Cell Growth Percent
[8] = system: HOP-92; assay: NCI 60 cell line panel (SRB), HOP-92; type: cell-based; conditions: Homo sapiens; HOP-92, Non-Small Cell Lung Cancer; single dose of 10 μM; read-out: Cell Growth Percent
[9] = target: T1, VEGFR-2 (KDR) (Homo sapiens, UniProt P35968); assay: In vitro VEGFR-2 tyrosine kinase activity (Kinase-Glo Plus luminescence, BPS Bioscience); type: biochemical; conditions: for inhibition at 10 µM: single dose concentration of 10 μM
T1 construct: purchased BPS Bioscience 40301

[10] = system: RXF 393; assay: NCI 60 cell line panel (SRB), RXF 393; type: cell-based; conditions: Homo sapiens; RXF 393, Renal Cancer; single dose of 10 μM; read-out: Cell Growth Percent
[11] = system: SK-MEL-5; assay: NCI 60 cell line panel (SRB), SK-MEL-5; type: cell-based; conditions: Homo sapiens; SK-MEL-5, Melanoma; single dose of 10 μM; read-out: Cell Growth Percent
[12] = system: NCI/ADR-RES; assay: NCI 60 cell line panel (SRB), NCI/ADR-RES; type: cell-based; conditions: Homo sapiens, Ovarian Cancer, single dose of 10 μM, read-out: Cell Growth Percent
[13] = system: T-47D; assay: NCI 60 cell line panel (SRB), T-47D; type: cell-based; conditions: Homo sapiens, T47D, Breast Cancer, single dose of 10 μM, read-out: Cell Growth Percent
[14] = system: SN12C; assay: NCI 60 cell line panel (SRB), SN12C; type: cell-based; conditions: Homo sapiens, Renal Cancer, single dose of 10 μM, read-out: Cell Growth Percent
[15] = system: NCI-H460; assay: NCI 60 cell line panel (SRB), NCI-H460; type: cell-based; conditions: Homo sapiens; NCI-H460, Non-Small Cell Lung Cancer; single dose of 10 μM; read-out: Cell Growth Percent
[16] = system: MALME-3M; assay: NCI 60 cell line panel (SRB), MALME-3M; type: cell-based; conditions: Homo sapiens, Melanoma, single dose of 10 μM, read-out: Cell Growth Percent
[17] = system: OVCAR-8; assay: NCI 60 cell line panel (SRB), OVCAR-8; type: cell-based; conditions: Homo sapiens; OVCAR-8, Ovarian Cancer; single dose of 10 μM; read-out: Cell Growth Percent
[18] = system: SK-MEL-28; assay: NCI 60 cell line panel (SRB), SK-MEL-28; type: cell-based; conditions: Homo sapiens; SK-MEL-28, Melanoma; single dose of 10 μM; read-out: Cell Growth Percent
[19] = system: DU-145; assay: NCI 60 cell line panel (SRB), DU-145; type: cell-based; conditions: Homo sapiens; DU-145, Prostate Cancer; single dose of 10 μM; read-out: Cell Growth Percent
[20] = system: KM12; assay: NCI 60 cell line panel (SRB), KM12; type: cell-based; conditions: Homo sapiens; KM12, Colon Cancer; single dose of 10 μM; read-out: Cell Growth Percent
[21] = system: UACC-257; assay: NCI 60 cell line panel (SRB), UACC-257; type: cell-based; conditions: Homo sapiens; UACC-257, Melanoma; single dose of 10 μM; read-out: Cell Growth Percent
[22] = system: OVCAR-5; assay: NCI 60 cell line panel (SRB), OVCAR-5; type: cell-based; conditions: Homo sapiens; OVCAR-5, Ovarian Cancer; single dose of 10 μM; read-out: Cell Growth Percent
[23] = system: SK-OV-3; assay: NCI 60 cell line panel (SRB), SK-OV-3; type: cell-based; conditions: Homo sapiens; SK-OV-3, Ovarian Cancer; single dose of 10 μM; read-out: Cell Growth Percent
[24] = system: HS 578T; assay: NCI 60 cell line panel (SRB), HS 578T; type: cell-based; conditions: Homo sapiens, Breast Cancer, single dose of 10 μM, read-out: Cell Growth Percent
[25] = system: HL-60(TB); assay: NCI 60 cell line panel (SRB), HL-60(TB); type: cell-based; conditions: Homo sapiens, Leukemia, single dose of 10 μM, read-out: Cell Growth Percent
[26] = system: SF-268; assay: NCI 60 cell line panel (SRB), SF-268; type: cell-based; conditions: Homo sapiens; SF-268, CNS Cancer; single dose of 10 μM; read-out: Cell Growth Percent
[27] = system: HCT-15; assay: NCI 60 cell line panel (SRB), HCT-15; type: cell-based; conditions: Homo sapiens; HCT-15, Colon Cancer; single dose of 10 μM; read-out: Cell Growth Percent
[28] = system: RPMI-8226; assay: NCI 60 cell line panel (SRB), RPMI-8226; type: cell-based; conditions: Homo sapiens; RPMI-8226, Leukemia; single dose of 10 μM; read-out: Cell Growth Percent
[29] = system: UACC-62; assay: NCI 60 cell line panel (SRB), UACC-62; type: cell-based; conditions: Homo sapiens; UACC-62, Melanoma; single dose of 10 μM; read-out: Cell Growth Percent
[30] = system: IGROV1; assay: NCI 60 cell line panel (SRB), IGROV1; type: cell-based; conditions: Homo sapiens, IGROV-1; IGROV1, Ovarian Cancer; single dose of 10 μM; read-out: Cell Growth Percent
[31] = system: HT29; assay: NCI 60 cell line panel (SRB), HT29; type: cell-based; conditions: Homo sapiens, HT-29; HT29, Colon Cancer; single dose of 10 μM; read-out: Cell Growth Percent
[32] = system: M14; assay: NCI 60 cell line panel (SRB), M14; type: cell-based; conditions: Homo sapiens; M14, Melanoma; single dose of 10 μM; read-out: Cell Growth Percent
[33] = system: MOLT-4; assay: NCI 60 cell line panel (SRB), MOLT-4; type: cell-based; conditions: Homo sapiens; MOLT-4, Leukemia; single dose of 10 μM; read-out: Cell Growth Percent
[34] = system: A549/ATCC; assay: NCI 60 cell line panel (SRB), A549/ATCC; type: cell-based; conditions: Homo sapiens, Non-Small Cell Lung Cancer, single dose of 10 μM, read-out: Cell Growth Percent

T1 sequence (P35968 20-1356): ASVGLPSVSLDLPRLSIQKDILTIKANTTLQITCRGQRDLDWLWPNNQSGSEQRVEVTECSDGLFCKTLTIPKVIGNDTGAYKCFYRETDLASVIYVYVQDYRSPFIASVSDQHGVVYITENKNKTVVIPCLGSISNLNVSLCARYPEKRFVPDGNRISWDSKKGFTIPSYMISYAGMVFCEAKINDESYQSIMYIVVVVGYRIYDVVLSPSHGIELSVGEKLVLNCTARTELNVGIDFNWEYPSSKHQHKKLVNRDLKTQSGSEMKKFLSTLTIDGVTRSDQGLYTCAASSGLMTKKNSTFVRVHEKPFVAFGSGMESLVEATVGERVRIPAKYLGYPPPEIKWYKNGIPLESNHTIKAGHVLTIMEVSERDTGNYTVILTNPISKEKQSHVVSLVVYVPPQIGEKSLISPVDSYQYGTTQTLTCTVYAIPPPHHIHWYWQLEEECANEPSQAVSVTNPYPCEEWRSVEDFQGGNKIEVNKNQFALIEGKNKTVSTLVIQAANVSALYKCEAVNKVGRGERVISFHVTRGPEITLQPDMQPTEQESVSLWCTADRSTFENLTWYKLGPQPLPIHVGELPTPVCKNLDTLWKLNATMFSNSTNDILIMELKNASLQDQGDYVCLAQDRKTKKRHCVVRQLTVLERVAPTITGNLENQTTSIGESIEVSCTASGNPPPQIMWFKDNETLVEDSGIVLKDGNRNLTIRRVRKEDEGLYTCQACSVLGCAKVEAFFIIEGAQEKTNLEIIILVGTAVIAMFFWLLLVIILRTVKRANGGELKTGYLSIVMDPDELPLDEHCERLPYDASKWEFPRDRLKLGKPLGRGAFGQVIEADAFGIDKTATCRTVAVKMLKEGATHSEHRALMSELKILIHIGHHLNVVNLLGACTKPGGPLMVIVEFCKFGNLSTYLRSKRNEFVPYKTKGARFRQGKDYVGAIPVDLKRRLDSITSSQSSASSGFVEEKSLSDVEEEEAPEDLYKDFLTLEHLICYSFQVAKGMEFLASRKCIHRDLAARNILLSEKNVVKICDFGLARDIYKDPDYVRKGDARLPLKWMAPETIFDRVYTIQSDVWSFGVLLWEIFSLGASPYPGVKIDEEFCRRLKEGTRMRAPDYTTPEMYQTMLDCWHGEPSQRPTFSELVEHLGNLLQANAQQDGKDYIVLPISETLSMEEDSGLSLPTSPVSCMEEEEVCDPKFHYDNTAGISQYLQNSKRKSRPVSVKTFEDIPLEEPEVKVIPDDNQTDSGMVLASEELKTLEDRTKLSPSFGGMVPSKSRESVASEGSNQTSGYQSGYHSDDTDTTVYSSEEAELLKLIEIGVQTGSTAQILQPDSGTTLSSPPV

Compound	activity at 10 µM [1] [%]	activity at 10 µM [2] [%]	activity at 10 µM [3] [%]	activity at 10 µM [4] [%]	activity at 10 µM [5] [%]	activity at 10 µM [6] [%]	activity at 10 µM [7] [%]	activity at 10 µM [8] [%]	activity at 10 µM [10] [%]	activity at 10 µM [11] [%]	activity at 10 µM [12] [%]	activity at 10 µM [13] [%]	activity at 10 µM [14] [%]	activity at 10 µM [15] [%]	activity at 10 µM [16] [%]	activity at 10 µM [17] [%]	activity at 10 µM [18] [%]	activity at 10 µM [19] [%]	activity at 10 µM [20] [%]	activity at 10 µM [21] [%]	other results
Cc1cccc(NC(=O)Nc2ccc(Oc3ncnc4sc5c(c34)CCCC5)cc2)c1 [Compound 21b]	61.2	68.3	73.4	51.9	87.2	55.8	77.3	80.9	79	72.9	71.5	49.2	75.9	65.2	104	85.9	91.6	81.3	37.3	107	pIC50 ([9]; 5 concentrations 1 nM - 10 μM): 7.48; activity at 10 µM [22]: 114%; activity at 10 µM [23]: 79.7%; activity at 10 µM [24]: 76.8%; activity at 10 µM [25]: 98.4%; activity at 10 µM [26]: 72.6%; activity at 10 µM [27]: 74.9%; activity at 10 µM [28]: 58.9%; activity at 10 µM [29]: 75.7%; activity at 10 µM [30]: 89%; activity at 10 µM [31]: 65.6%; activity at 10 µM [32]: 68.2%; activity at 10 µM [33]: 58.1%; activity at 10 µM [34]: 66.5%
O=C(Nc1ccccc1)Nc1ccc(Nc2ncnc3sc4c(c23)CCCC4)cc1 [Compound 20a]	107	83.3	101	93.3	96.8	97.8	99.4	100	102	97.3	107	100	99.2	104	102	107	116	109	102	93.5	inhibition at 10 µM [9]: 39%; activity at 10 µM [22]: 119%; activity at 10 µM [23]: 99.5%; activity at 10 µM [24]: 85.3%; activity at 10 µM [25]: 97%; activity at 10 µM [26]: 100%; activity at 10 µM [27]: 110%; activity at 10 µM [28]: 99.2%; activity at 10 µM [29]: 97.8%; activity at 10 µM [30]: 107%; activity at 10 µM [31]: 96.1%; activity at 10 µM [32]: 103%; activity at 10 µM [33]: 89.4%; activity at 10 µM [34]: 73.8%
CCOC(=O)c1c(C)oc2ncnc(Nc3ccc(NC(=O)Nc4cccc(Cl)c4)cc3)c12 [Compound 15d]	73.7	63	57.4	70.6	49.7	53.6	64.1	50.6	63.6	52.9	43.7	1.9	73.9	67.1	81.4	50.2	61.8	70.8	61	83.9	inhibition at 10 µM [9]: 61%; activity at 10 µM [22]: 122%; activity at 10 µM [23]: 93.2%; activity at 10 µM [24]: 80.6%; activity at 10 µM [25]: 88.4%; activity at 10 µM [26]: 86.4%; activity at 10 µM [27]: 58.9%; activity at 10 µM [28]: 46.1%; activity at 10 µM [29]: 69.1%; activity at 10 µM [30]: 78.4%; activity at 10 µM [31]: 37.1%; activity at 10 µM [32]: 48.6%; activity at 10 µM [33]: 49.2%; activity at 10 µM [34]: 32.3%
CCOC(=O)c1c(C)oc2ncnc(Nc3ccc(C(=O)Nc4cccc(Cl)c4)cc3)c12 [Compound 14a]	98	92.4	114	105	90.9	74.8	93.1	92	76.8	92.2	99.4	98.2	94.1	100	122	103	105	75.9	93.8	117	inhibition at 10 µM [9]: 5%; activity at 10 µM [22]: 116%; activity at 10 µM [23]: 112%; activity at 10 µM [24]: 107%; activity at 10 µM [25]: 105%; activity at 10 µM [26]: 103%; activity at 10 µM [27]: 108%; activity at 10 µM [28]: 94.6%; activity at 10 µM [29]: 67.6%; activity at 10 µM [30]: 105%; activity at 10 µM [31]: 83.6%; activity at 10 µM [32]: 95.2%; activity at 10 µM [33]: 94%; activity at 10 µM [34]: 95.3%
COc1cccc(NC(=O)Nc2ccc(Nc3ncnc4sc5c(c34)CCCC5)cc2)c1 [Compound 20c]	88.8	91.3	92	62.7	114	84.6	94.4	118	116	92.3	106	66.4	91	106	79.9	113	93.3	105	89.6	94.9	inhibition at 10 µM [9]: 67%; activity at 10 µM [22]: 106%; activity at 10 µM [23]: 88.4%; activity at 10 µM [24]: 74.4%; activity at 10 µM [25]: 91.1%; activity at 10 µM [26]: 99.5%; activity at 10 µM [27]: 97.8%; activity at 10 µM [28]: 102%; activity at 10 µM [29]: 106%; activity at 10 µM [30]: 106%; activity at 10 µM [31]: 104%; activity at 10 µM [32]: 89.8%; activity at 10 µM [33]: 81.3%; activity at 10 µM [34]: 78.3%

Source: paper PMC4832243, “Discovery of Potent VEGFR-2 Inhibitors based on Furopyrimidine and Thienopyrimidne Scaffolds as Cancer Targeting Agents” (Scientific Reports, 2016)
